Source: patent US20250127801A1, “BRIDGED TRICYCLIC CARBAMOYLPYRIDONE COMPOUNDS AND USES THEREOF” (priority 2023, published 2025)
pEC50: −log10 of the molar value. Converted amounts (≈) assume the structure as drawn. Read-outs that look alike come from different tables or passages of the source.

What was measured:
[1] = physchem; conditions: 23 °C, thermodynamic from solid; for solubility thermodynamic at 24 h: FaSSIF; for solubility thermodynamic: fassif
[2] = in vitro; conditions: human; for CC50 at 5 days: uninfected MT-4 cells
[3] = test system: HIV-1 (IIIB); assay: microbe, parasite or virus in culture; format: cell-based; conditions: for pEC50: Human immunodeficiency virus 1, MT4, 120 h, HIV-1 (IIIB) replication in MT-4 cells, 5 days incubation, Cell Titer Glo, read-out: MT4 EC50; for EC50: Human immunodeficiency virus 1, IIIB, MT4, 120 h, read-out: MT4 EC50 (nM)

Compound	solubility thermodynamic at 24 h [1] [µg/mL]	pEC50 [3]	CC50 at 5 days [2] [nM]	solubility thermodynamic [1] [µg/mL]	CC50 [2] [nM]	EC50 [3] [nM]
CC1=NO[C@@]2(CC[C@H](C)N3C[C@H]2n2cc(C(=O)NCc4ccc(F)cc4F)c(=O)c(OCOC(=O)O[C@H]4CCCC[C@H]4OP(=O)(O)O)c2C3=O)C1 [Compound 51, (((3′S,5S,7′R)-10′-((2,4-difluorobenzyl)carbamoyl)-3,3′-dimethyl-1′,11′-dioxo-1′,4′,5′,11′-tetrahydro-3′H,4H,7′H-spiro[isoxazole-5,6′-[2,7]methanopyrido[1,2-a][1,4]diazonin]-12′-yl)oxy)methyl ((1S,2R)-2-(phosphonooxy)cyclohexyl) carbonate]	4400 (≈ 5.95 mM)	8.70	21200	–	–	–
CC1=NO[C@@]2(CC[C@H](C)N3C[C@H]2n2cc(C(=O)NCc4ccc(F)cc4F)c(=O)c(OCOC(=O)CC(C)(C)c4c(CC(=O)N5CCC[C@@H]5C(=O)O)cc(C)cc4OP(=O)(O)O)c2C3=O)C1 [Compound 57, (2-(2-(4-((((3′S,5S,7′R)-10′-((2,4-difluorobenzyl)carbamoyl)-3,3′-dimethyl-1′,11′-dioxo-1′,4′,5′,11′-tetrahydro-3′H,4H,7′H-spiro[isoxazole-5,6′-[2,7]methanopyrido[1,2-a][1,4]diazonin]-12′-yl)oxy)methoxy)-2-methyl-4-oxobutan-2-yl)-5-methyl-3-(phosphonooxy)phenyl)acetyl)-D-proline]	–	–	–	5460 (≈ 5.79 mM)	15000	2.55
CC1=NO[C@@]2(CC[C@H](C)N3C[C@H]2n2cc(C(=O)NCc4ccc(F)cc4F)c(=O)c(OCOC(=O)CC(C)(C)c4c(CC(=O)N5CCOCC5)cc(C)cc4OP(=O)(O)O)c2C3=O)C1 [Compound 58, (((3′S,5S,7′R)-10′-((2,4-difluorobenzyl)carbamoyl)-3,3′-dimethyl-1′,11′-dioxo-1′,4′,5′,11′-tetrahydro-3′H,4H,7′H-spiro[isoxazole-5,6′-[2,7]methanopyrido[1,2-a][1,4]diazonin]-12′-yl)oxy)methyl 3-methyl-3-(4-methyl-2-(2-morpholino-2-oxoethyl)-6-(phosphonooxy)phenyl)butanoate]	–	–	–	4640 (≈ 5.08 mM)	29000	5.78
COC1=NO[C@@]2(CC[C@H](C)N3C[C@H]2n2cc(C(=O)NCc4ccc(F)cc4F)c(=O)c(OC(=O)N(C)c4ncccc4CN(CC(=O)O)C(=O)OCOP(=O)(O)O)c2C3=O)C1 [Compound 59, N-((2-(((((3′S,5S,7′R)-10′-((2,4-difluorobenzyl)carbamoyl)-3-methoxy-3′-methyl-1′,11′-dioxo-1′,4′,5′,11′-tetrahydro-3′H,4H,7′H-spiro[isoxazole-5,6′-[2,7]methanopyrido[1,2-a][1,4]diazonin]-12′-yl)oxy)carbonyl)(methyl)amino)pyridin-3-yl)methyl)-N-(((phosphonooxy)methoxy)carbonyl)glycine]	–	–	–	5280 (≈ 6.01 mM)	10600	1.2
CC1=NO[C@@]2(CC[C@H](C)N3C[C@H]2n2cc(C(=O)NCc4ccc(F)cc4F)c(=O)c(OC(=O)N(C)c4ncccc4CN(C)C(=O)OCOP(=O)(O)O)c2C3=O)C1 [Compound 61, (phosphonooxy)methyl ((2-(((((3′S,5S,7′R)-10′-((2,4-difluorobenzyl)carbamoyl)-3,3′-dimethyl-1′,11′-dioxo-1′,4′,5′,11′-tetrahydro-3′H,4H,7′H-spiro[isoxazole-5,6′-[2,7]methanopyrido[1,2-a][1,4]diazonin]-12′-yl)oxy)carbonyl)(methyl)amino)pyridin-3-yl)methyl)(methyl)carbamate]	–	–	–	4140 (≈ 5.07 mM)	15200	1.39

Now from value to compound, other results behind:

solubility thermodynamic at 24 h [1] [µg/mL]	pEC50 [3]	Compound	CC50 at 5 days [2] [nM]	solubility thermodynamic [1] [µg/mL]	CC50 [2] [nM]	EC50 [3] [nM]
4890 (≈ 6.75 mM)	8.38	CC1=NO[C@@]2(CC[C@H](C)N3C[C@H]2n2cc(C(=O)NCc4ccc(F)cc4F)c(=O)c(OCOC(=O)OC[C@@H]4C[C@@H]4COP(=O)(O)O)c2C3=O)C1 [Compound 49, (((3′S,5S,7′R)-10′-((2,4-difluorobenzyl)carbamoyl)-3,3′-dimethyl-1′,11′-dioxo-1′,4′,5′,11′-tetrahydro-3′H,4H,7′H-spiro[isoxazole-5,6′-[2,7]methanopyrido[1,2-a][1,4]diazonin]-12′-yl)oxy)methyl (((1R,2S)-2-((phosphonooxy)methyl)cyclopropyl)methyl) carbonate]	23300	–	–	–
4680 (≈ 6.22 mM)	8.30	CC1=NO[C@@]2(CC[C@H](C)N3C[C@H]2n2cc(C(=O)NCc4ccc(F)cc4F)c(=O)c(OCOC(=O)O[C@H]4CCCC[C@H]4COP(=O)(O)O)c2C3=O)C1 [Compound 53, (((3′S,5S,7′R)-10′-((2,4-difluorobenzyl)carbamoyl)-3,3′-dimethyl-1′,11′-dioxo-1′,4′,5′,11′-tetrahydro-3′H,4H,7′H-spiro[isoxazole-5,6′-[2,7]methanopyrido[1,2-a][1,4]diazonin]-12′-yl)oxy)methyl ((1S,2S)-2-((phosphonooxy)methyl)cyclohexyl) carbonate]	35700	–	–	–
5280 (≈ 7.29 mM)	8.03	CC1=NO[C@@]2(CC[C@H](C)N3C[C@H]2n2cc(C(=O)NCc4ccc(F)cc4F)c(=O)c(OCOC(=O)O[C@@H]4CC[C@H](OP(=O)(O)O)C4)c2C3=O)C1 [Compound 54, (((3′S,5S,7′R)-10′-((2,4-difluorobenzyl)carbamoyl)-3,3′-dimethyl-1′11′-dioxo-1′,4′,5′,11′-tetrahydro-3′H,4H,7′H-spiro[isoxazole-5,6′-[2,7]methanopyrido[1,2-a][1,4]diazonin]-12′-yl)oxy)methyl ((cis)-3-(phosphonooxy)cyclopentyl) carbonate]	≥ 50000	–	–	–
5520 (≈ 7.05 mM)	8.60	CC1=NO[C@@]2(CC[C@H](C)N3C[C@H]2n2cc(C(=O)NCc4ccc(F)cc4F)c(=O)c(OCOC(=O)OCC4(COP(=O)(O)O)COC(=O)N4C)c2C3=O)C1 (stereo partly drawn) [Compound 55, (((3′S,5S,7′R)-10′-((2,4-difluorobenzyl)carbamoyl)-3,3′-dimethyl-1′,11′-dioxo-1′,4′,5′,11′-tetrahydro-3′H,4H,7′H-spiro[isoxazole-5,6′-[2,7]methanopyrido[1,2-a][1,4]diazonin]-12′-yl)oxy)methyl ((3-methyl-2-oxo-4-((phosphonooxy)methyl)oxazolidin-4-yl)methyl) carbonate]	12900	–	–	–
3560 (≈ 4.81 mM)	8.62	CC1=NO[C@@]2(CC[C@H](C)N3C[C@H]2n2cc(C(=O)NCc4ccc(F)cc4F)c(=O)c(OCOC(=O)OCC4(COP(=O)(O)O)COC4)c2C3=O)C1 [Compound 56, (((3′S,5S,7′R)-10′-((2,4-difluorobenzyl)carbamoyl)-3,3′-dimethyl-1′,11′-dioxo-1′,4′,5′,11′-tetrahydro-3′H,4H,7′H-spiro[isoxazole-5,6′-[2,7]methanopyrido[1,2-a][1,4]diazonin]-12′-yl)oxy)methyl ((3-((phosphonooxy)methyl)oxetan-3-yl)methyl) carbonate]	12800	–	–	–
